Experimental data from US12409189B2, “STAUFEN1 agents and associated methods” (University of Utah Research Foundation, priority 2016, dated 2025).
“Also recorded” adds a separate entry of the source. d = 2'-deoxy (DNA); r = 2'-OH (RNA)

Tests used:
Format in all cases: cell-based, human
[1] = tested on: STAU1; test: Sodium arsenite-induced stress, STAU1 immunoblotting in fibroblasts
Excerpt: Cell culture and Transfections. Four normal skin fibroblasts (ATXN2 with CAG22) and five SCA2 patient-derived skin FBs (ATXN2 with CAG repeats; 35, 35, 35, 42, and 45), were maintained in DMEM medium containing 10% fetal bovine serum. Two normal (ATXN2 with CAG22) and three SCA2 patient-derived (ATXN2 with expanded CAG repeats; 40, 46 and 52) Epstein-Barr virus (EBV)-immortalized LBCs were maintained in RPMI medium containing 15% fetal bovine serum. All subjects gave written consent and all procedures were approved by the Institutional Review Board at the University of Utah. The following primary human fibroblasts were obtained from the Coriell Cell Repositories (Camden, NJ, USA): ALS patient (TDP-43G298S mutation)(ND32947), Huntington disease (HD) patient (ND33392) and SCA3 (Machado-Joseph disease, MJD) patient (GM06153). TDP-43G298S, HD, SCA3, and SH-SY5Y cells were maintained in DMEM medium containing 10% fetal bovine serum.
(§1) Preparation of protein lysates and western blot analyses. Cellular extracts were prepared by a single-step lysis method. […] Signals were detected by using the Immobilon Western Chemiluminescent HRP Substrate (Millipore Inc., USA; cat #WBKLSO100) according to the manufacturer's protocol. The intensity of proteins was determined by using the ImageJ software analyses system and the relative protein abundances were expressed as ratios to β-actin.

[2] = tested on: ATXN2 transcript; test: qPCR of ATXN2 transcript in LB cells after Staufen1 silencing; settings: normal or SCA2-LB cells, Staufen1 siRNA
Excerpt: (§2) The siRNAs used in this study were: All Star Negative Control siRNA (Qiagen Inc., USA; Cat #1027280), siATXN2 [Hs_ATXN2_2, (Qiagen Inc., USA; Cat #SI00308196), human siSTAU1: 5′-CCUAUAACUACAACAUGAGdTdT-3′ (SEQ ID NO: 3) and mouse siStau1: 5′-CAACUGUACUACCUUUCCAdTdT-3′ (SEQ ID NO: 31). Staufen1 siRNA oligonucleotides were synthesized by Invitrogen Inc., USA. The oligonucleotides were deprotected and the complementary strands were annealed.
(§3) For over-expression of recombinant proteins, SH-SY5Y cells were seeded on 100 mm or 6 well dishes and incubated overnight. The cells were then transfected with plasmid DNAs and harvested 48 hrs post-transfection and processed as two aliquots for protein and RNA analyses. For siRNA experiments, cells were transfected with siRNAs using lipofectamine 2000, and lymphoblastoid B cells (1×10^6) were electroporated with siRNAs using the Neon transfection system (Invitrogen Inc., USA) according to the manufacturer's protocol and seeded on 6 well plates.
(§4) RNA expression analyses by Quantitative RT-PCR. […] Quantitative RT-PCR was performed in QuantStudio 12K (Life Technologies, Inc.; USA) with the Power SYBR Green PCRMaster Mix (Applied Biosystems Inc.; USA). […] The threshold cycle for each sample was chosen from the linear range and converted to a starting quantity by interpolation from a standard curve run on the same plate for each set of primers. […]

[3] = tested on: ATXN2; test: Western blot of ATXN2 in ATXN2-Q22/58 KI cells after RNAi
Description: (§5) SH-SY5Y cells were cultured in standard DMEM with 10% FBS and 1X penicillin/streptomycin in 5% CO2. Transfection of STAU1 siRNA or STAU1 ASO was accomplished using Lipofectamine transfection reagent using standard conditions. Cells were harvested 3-5 days post transfection.
Protein extracts were prepared by suspending cell pellets in SDS-PAGE sample buffer (Laemmli sample buffer) followed by boiling for 5 min. Equal amount of the extracts were subjected to Western blot analysis to determine the steady-state levels of proteins using the indicated antibodies. Protein extracts were resolved by SDS-PAGE and transferred to Hybond P membranes (Amersham Bioscience Inc., USA). […] Following three additional washes with 0.1% Tween 20/PBS, signals were detected by using the Immobilon Western Chemiluminescent HRP Substrate (Millipore Inc., USA; cat #WBKLSO100) according to the manufacturer's protocol. […]
as §1, with “analyses.” for “analyses. Cellular extracts were prepared by a single-step lysis method.”

[4] = tested on: Staufen1; test: Western blot of Staufen1 in normal and SCA2 LB cells and SCA2 fibroblasts after siRNA; settings: siRNA electroporation, 4 days
Excerpt: as §2, §3
as §1, with “analyses.” for “analyses. Cellular extracts were prepared by a single-step lysis method.”

[5] = tested on: PCP2 mRNA; test: qPCR of PCP2 transcript in LB cells and SCA2 fibroblasts after siRNA; settings: Staufen1 siRNA
Excerpt: as §2, §3, §4

[6] = tested on: autophagic pathway proteins (mTOR, P-mTOR, p62, LC3-II); test: Western blot of autophagic pathway proteins in SH-SY5Y and ATXN2-Q22/58 knock-in cells; settings: for autophagic pathway proteins: ATXN2-Q22/58 knock-in cells, RNAi transfection
Description: as §5
Protein extracts were prepared by suspending cell pellets in SDS-PAGE sample buffer (Laemmli sample buffer) followed by boiling for 5 min. Equal amount of the extracts were subjected to Western blot analysis to determine the steady-state levels of proteins using the indicated antibodies. Protein extracts were resolved by SDS-PAGE and transferred to Hybond P membranes (Amersham Bioscience Inc., USA). After blocking with 5% skim milk in 0.1% Tween 20/PBS, the membranes were incubated with primary antibodies in 5% skim milk in 0.1% Tween 20/PBS for 2 hrs at room temperature or overnight at 4° C. After several washes with 0.1% Tween 20/PBS, the membranes were incubated with the corresponding secondary antibodies conjugated with HRP in 5% skim milk in 0.1% Tween 20/PBS for 2 hrs at room temperature. Following three additional washes with 0.1% Tween 20/PBS, signals were detected by using the Immobilon Western Chemiluminescent HRP Substrate (Millipore Inc., USA; cat #WBKLSO100) according to the manufacturer's protocol. […] Secondary antibodies were horse anti-mouse IgG-HRP antibody (Vector laboratories, PI-2000), and goat anti-rabbit IgG-HRP antibody (Vector laboratories, PI-1000).
as §3
Preparation of protein lysates and western blot analyses. Cellular extracts were prepared by a single-step lysis method. […] Equal amounts of the extracts were used for western blot analyses. […] Only supernatants were used for western blotting. Protein extracts were resolved by SDS-PAGE and transferred to Hybond P membranes (Amersham Bioscience Inc., USA). After blocking with 5% skim milk in 0.1% Tween 20/PBS, the membranes were processed for immunostaining using corresponding primary and secondary antibodies. Signals were detected by using the Immobilon Western Chemiluminescent HRP Substrate (Millipore Inc., USA; cat #WBKLSO100) according to the manufacturer's protocol. The intensity of proteins was determined by using the ImageJ software analyses system and the relative protein abundances were expressed as ratios to β-actin.

[7] = tested on: p21 Waf1/Cip1; test: Cycloheximide (CHX)-chase assay, p21 Waf1/Cip1 control, western blot; settings: 4 hr after CHX treatment (25 μg/ml), both normal and SCA2 fibroblasts
Description: (§6) To identify the underlying mechanism of ATXN2 polyQ expansion-mediated Staufen1 abundance, Staufen1 transcript levels were examined in normal and SCA2 fibroblasts. […] To test this, comparative protein stability for Staufen1 was measured by cycloheximide (CHX)-chase assay in normal and SCA2 fibroblasts. Relative Staufen1 levels were analyzed from harvested normal and SCA2 fibroblast extracts. (FIGS. 4B and 4C).
(§7) Preparation of protein lysates and western blot analyses. Cellular extracts were prepared by a single-step lysis method. The harvested cells were suspended in SDS-PAGE sample buffer [Laemmli sample buffer (Bio-Rad Inc.; cat #161-0737)] and then boiled for 5 min. Equal amounts of the extracts were used for western blot analyses. Cerebellar protein extracts were prepared by homogenization of mouse cerebella in extraction buffer [25 mM Tris-HCl pH 7.6, 300 mM NaCl, 0.5% Nonidet P-40, 2 mM EDTA, 2 mM MgCl2, 0.5 M urea and protease inhibitors (Sigma Inc.; cat #P-8340)] followed by centrifugation at 4° C. for 20 min at 14,000 RPM. […] Signals were detected by using the Immobilon Western Chemiluminescent HRP Substrate (Millipore Inc., USA; cat #WBKLSO100) according to the manufacturer's protocol. The intensity of proteins was determined by using the ImageJ software analyses system and the relative protein abundances were expressed as ratios to β-actin.

[8] = tested on: Staufen1; test: Cycloheximide (CHX)-chase assay, Staufen1 protein stability, western blot
Description: as §6, §7

[9] = tested on: Staufen1; test: Western blot of Staufen1 in SH-SY5Y and ATXN2-Q22/58 knock-in cells; settings: for STAU1 levels, expression relative to actin: SH-SY5Y-ATXN2 [Q22/Q22] cells, ASO at the indicated dose, western blotting
Description: as §5
Protein extracts were prepared by suspending cell pellets in SDS-PAGE sample buffer (Laemmli sample buffer) followed by boiling for 5 min. Equal amount of the extracts were subjected to Western blot analysis to determine the steady-state levels of proteins using the indicated antibodies. Protein extracts were resolved by SDS-PAGE and transferred to Hybond P membranes (Amersham Bioscience Inc., USA). After blocking with 5% skim milk in 0.1% Tween 20/PBS, the membranes were incubated with primary antibodies in 5% skim milk in 0.1% Tween 20/PBS for 2 hrs at room temperature or overnight at 4° C. After several washes with 0.1% Tween 20/PBS, the membranes were incubated with the corresponding secondary antibodies conjugated with HRP in 5% skim milk in 0.1% Tween 20/PBS for 2 hrs at room temperature. Following three additional washes with 0.1% Tween 20/PBS, signals were detected by using the Immobilon Western Chemiluminescent HRP Substrate (Millipore Inc., USA; cat #WBKLSO100) according to the manufacturer's protocol. The antibodies used included ATXN2 mAb [(1:3000), BD Biosciences Inc.; cat #611378], rabbit anti-Staufen antibody (Novus biologicals Inc., NBP1-33202), SQSTM1/p62 antibody (Cell signaling, #5114), LC3B Antibody (Novus biologicals Inc., NB100-2220), mTOR antibody (Cell signaling, #2972), Phospho-mTOR (Ser2448) antibody (Cell signaling #2971), β-Actin mAb conjugated with HRP [(1:10,000), Sigma Inc.; cat #A3858]. Secondary antibodies were horse anti-mouse IgG-HRP antibody (Vector laboratories, PI-2000), and goat anti-rabbit IgG-HRP antibody (Vector laboratories, PI-1000).
as §3
as §1, with “analyses.” for “analyses. Cellular extracts were prepared by a single-step lysis method.”

[10] = SH-SY5Y and ATXN2-Q22/58 knock-in cells, Baf dose-wise, 6 h, vs untreated

Question: How did the “STAU1 level in response to arsenite” value ([1]; HD and SCA3 patient fibroblasts, 1.0 mM, 0, 3 and 6 hr) turn out when `O=[As]O` [sodium arsenite] was run?
Answer: The value was “early and exaggerated responses; also recorded: exaggerated increases in STAU1 levels”.

Question: And the “STAU1 level in response to arsenite” value ([1]; normal fibroblasts (implied), only visible after 6 hr treatment)?
Answer: The value was “modest STAU1 increase”.

Question: Which results are given for “5′-CCUAUAACUACAACAUGAGdTdT-3′ (sense CCUAUAACUACAACAUGAGTT; sugars from the 5' end r19 d2, backbone not given here) [siSTAU1, siRNA directed against human Staufen1, synthesized by Invitrogen]”?
Answer: ATXN2 transcript levels [2]: does not show any effect on ATXN2 transcript levels; ATXN2 steady-state levels ([3]; listed as STAU1-RNAi): did not change ATXN2 levels; ATXN2 steady-state levels ([3]; listed as STAU1 siRNA): without affecting ATXN2 steady-state levels; depletion of Staufen1 ([4]; SCA2-LB (ATXN2-Q22/52) cells): ~83%; silencing of staufen1 ([4]; normal LB cells): ~81%; PCP2 mRNA level ([5]; SCA2-LB (ATXN2-Q22/52) cells, qPCR): restored PCP2 mRNA level to a level similar to that seen in normal LB cells treated with control siRNA; PCP2 mRNA levels ([5]; normal LB cells, vs control siRNA): did not show significant alteration of PCP2 mRNA levels; autophagic pathway proteins ([6]; listed as STAU1 RNAi): restored autophagic pathway proteins; autophagic pathway proteins ([6]; listed as STAU1 siRNA): restoration of autophagic pathway proteins

Question: What does the source list for `C[C@@H]1C[C@@H]([C@H](O)CC2CC(=O)NC(=O)C2)C(=O)[C@@H](C)C1` [CHX, cycloheximide]?
Answer: reduction of p21 Waf1/Cip1 levels [7]: ~90%; Staufen1 protein expression levels ([8]; SCA2 fibroblasts, CHX treatment): relatively little decrease; Staufen1 levels ([8]; normal fibroblasts, 4 hr after CHX treatment): reduced

Question: `CO/C1=C\C(C)=C\[C@@H](C)[C@@H](O)[C@@H](C)C/C(C)=C/C=C/[C@H](OC)[C@@H]([C@@H](C)[C@@H](O)[C@H](C)[C@@]2(O)C[C@@H](O)[C@H](C)[C@@H](C(C)C)O2)OC1=O` [Bafilomycin Al, bafilomycin Al, reference compound] was tested. Which “Staufen1 levels / clearance” value [9, 10] did it give?
Answer: The value was “dose-wise increased levels; also recorded: lowers Staufen1 clearance”.

Question: And the LC3-II level ([6]; ATXN2-Q22/58 KI cells, Baf treatment)?
Answer: Its LC3-II level is “slight elevation of LC3-II”.

Question: What about the “processed LC3-II and p62 levels” value [6, 10] of the same molecule?
Answer: Its value is “dose-wise increased levels”.

Question: “5′-CTGGAAAGATAGTCCAGTTG-3′ (listed as DNA, chemistry not given here; listed as Homo sapiens) [STAU1 ASO-B, antisense oligonucleotide targeting Staufen1]” was tested. Which “STAU1 levels, expression relative to actin” value [9] did it give?
Answer: The value was “reduced STAU1 levels”.

Question: Which “STAU1 levels, expression relative to actin” value [9] does the source give for “5′-TCTCATGTTGTAGTTATAGG-3′ (listed as DNA, chemistry not given here; listed as Homo sapiens) [STAU1 ASO-A, antisense oligonucleotide targeting Staufen1]” here?
Answer: The value was “reduced STAU1 levels”.
